Data from paper PMC9159100, “Intramitochondrial co-assembly between ATP and nucleopeptides induces cancer cell apoptosis” (Chemical Science, 2022).
Square brackets hold non-standard residues; d marks the D form. Peptide text beside a SMILES is read from it. * marks the point of attachment. Acetyl(thymin-1-yl) = Cc1cn(CC(=O)*)c(=O)[nH]c1=O; Cha = N[C@@H](CC1CCCCC1)C(=O)O

Legend:
IMR90 cells = type: cell-based
Protocol: page 16: S7. Cell culture and MTT assay Cell culture: HeLa and IMR90 cells were purchased from American-type Culture Collection (ATCC, USA). Hela and IMR90 were cultured in Dulbecco’s Modified Eagle’s medium (DMEM) supplemented with 10% v fetal bovine serum (FBS), 100 U/mL penicillin and 100 μg/mL streptomycin. All cells were cultured at 37 °C in a […] For MTT assay, cells were seeded in a 96-well plate with the density of 5*103 cells per-well. After 24 hours seeding, the solutions of samples with a serial of concentr ations (5 concentrations and control) were added to each well. 10 μL MTT solution (5 mg/mL) was added to each well and incubated at 37°C for 2 days incubation and incubated for another 4 h, and then 100 μL of SDS-HCl solution was added to stop the reductio n reaction and dissolve the purple formazan. The absorbance of each well at 595 nm was measured by a multimode microplate reader. The cytotoxicity assay was performed three times and the average value of the three measurements was taken. ATP depletion method: Cells were pre -incubated with 10 mM sodium azide ( NaN3), 6 mM 2DG(2-deoxy-glucose) […] After 40 minutes, cells were washed with PBS and free medium. MNP/ADP complex was treated to ATP depleted HeLa cells for 48 hours to assess cytotoxicity.

[1] = Turbidity / appearance of aqueous solution (photograph, transmittance at 280 nm); type: physicochemical; details: 200 μM in aqueous solution, ATP added
Protocol: First, we investigated the self-assembly ability and interaction between MNP and ADP or ATP. […] As can be evinced from Fig. 1b and c, the formed nanostructure consisted of approximately 500 nm-sized micellar structures according to transmission electron microscopy (TEM) and scanning electron microscopy (SEM). This is further confirmed by the turbidity of the solution which was determined by transmittance using UV-Vis spectroscopy. […] Transmission electron (TEM) microscopy images of (a) MNP/ADP complex (scale bar: 100 nm) and (b) MNP/ATP complex at 200 μM concentration in aqueous solution (scale bar: 500 nm); (c) scanning electron microscopy image of the MNP/ATP complex at 200 μM concentration in aqueous solution (scale bar: 500 nm); (d) sample turbidity measured by transmittance at 280 nm (inset: photograph) of the MNP, MNP/ADP complex and MNP/ATP complex at 200 μM concentration in aqueous solution; (e) confocal images of the MNP-NBD/ATP complex (Scale bar: 1 μm); (f) photograph of the aqueous solutions of the control molecules (AcNP and MNP2) and MNP in a complex with ATP (concentration: 200 μM). […] S3. ^† Micellar structures characterized by green fluorescence (Fig. 1e) were observed by confocal laser scanning microscopy performed on the MNP-NBD/ATP complex at 200 μM concentration in aqueous solution. […]

SMILES	toxicity toward IMR90 cells above 25 μM (IMR90 cells)	toxicity toward IMR90 cells at 25 μM (IMR90 cells)	appearance of solution in the presence of ATP [1]
CC(=O)N[C@H](CCCNC(=N)N)C(=O)N[C@H](CCCNC(=N)N)C(=O)N[C@@H](CC1CCCCC1)C(=O)N[C@H](CCCNC(=N)N)C(=O)N[C@@H](CC1CCCCC1)C(=O)N[C@H](CCCNC(=N)N)C(=O)N[C@@H](CC1CCCCC1)C(=O)N[C@@H](Cc1ccccc1)C(=O)N[C@@H](Cc1ccccc1)C(=O)O [AcNP, Ac–rrFxrFxrFxFF] (Ac-[dR][dR][Cha][dR][Cha][dR][Cha]FF-OH)	less toxicity	almost no toxicity	–
Cc1cn(CC(=O)N[C@H](CCCNC(=N)N)C(=O)N[C@H](CCCNC(=N)N)C(=O)N[C@@H](CC2CCCCC2)C(=O)N[C@H](CCCNC(=N)N)C(=O)N[C@@H](CC2CCCCC2)C(=O)N[C@H](CCCNC(=N)N)C(=O)N[C@@H](CC2CCCCC2)C(=O)O)c(=O)[nH]c1=O [MNP2, Thy–rrFxrFxrFx] ({Acetyl(thymin-1-yl)}-[dR][dR][Cha][dR][Cha][dR][Cha]-OH)	–	–	did not become cloudy
